# In ChEMBL document CHEMBL5375992, “Design and Development of IKZF2 and CK1α Dual Degraders” (J Med Chem, 2023):
# Active and inactive are the calls of the source. The rule behind the calls is not given here.
# Key:
# [1] = Solubility of compound in DMSO; format: physicochemical
# [2] = molecular target: T1, Cereblon/Ikaros (Homo sapiens) (UniProt Q96SW2+Q13422); assay: Protac activity at CRBN/IKZF1 (unknown origin) transfected in HEK293T cells at 100 nM incubated for 24 hrs by flow cytometry analysis relative to control; format: cell-based
# [3] = molecular target: Protein cereblon/Eukaryotic peptide chain release factor GTP-binding subunit ERF3A (Homo sapiens) (UniProt Q96SW2+P15170); assay: Protac activity at CRBN/GSPT1 (unknown origin) transfected in HEK293T cells at 100 nM incubated for 24 hrs by flow cytometry analysis relative to control; format: cell-based
# [4] = molecular target: Cereblon/Casein kinase I alpha (Homo sapiens) (UniProt P48729+Q96SW2); assay: Protac activity at CRBN/CK1alpha (unknown origin) transfected in HEK293T cells at 100 nM incubated for 24 hrs by flow cytometry analysis relative to control; format: cell-based
# [5] = molecular target: T2, Protein cereblon/Zinc finger protein Helios (Homo sapiens) (UniProt Q96SW2+Q9UKS7); assay: Protac activity at CRBN/IKZF2 (unknown origin) transfected in HEK293T cells at 100 nM incubated for 24 hrs by flow cytometry analysis relative to control; format: cell-based
# [6] = molecular target: T1, Cereblon/Ikaros (Homo sapiens); assay: Protac activity at CRBN/IKZF1 in human MOLM-13 cells assessed as relative ratio at 25 uM incubated for 24 hrs by Western blotting analysis relative to DMSO; format: cell-based
# [7] = molecular target: T2, Protein cereblon/Zinc finger protein Helios (Homo sapiens); assay: Protac activity at CRBN/IKZF2 in human MOLM-13 cells assessed as relative ratio at 25 uM incubated for 24 hrs by Western blotting analysis relative to DMSO; format: cell-based
# [8] = molecular target: T1, Cereblon/Ikaros (Homo sapiens); assay: Protac activity at CRBN/IKZF1 in human MOLM-13 cells at 25 uM incubated for 24 hrs by Western blotting analysis relative to control; format: cell-based
# [9] = molecular target: T2, Protein cereblon/Zinc finger protein Helios (Homo sapiens); assay: Protac activity at CRBN/IKZF2 in human MOLM-13 cells at 25 uM incubated for 24 hrs by Western blotting analysis relative to control; format: cell-based
# [10] = Metabolic stability in mouse liver microsomes assessed as intrinsic clearance preincubated with NADPH and UDPGA for 5 mins followed by compound addition and measured upto 60 mins by LC-MS/MS analysis; format: ADME, Microsome; details: read-out: CLH
# [11] = Metabolic stability in mouse liver microsomes assessed as half life preincubated with NADPH and UDPGA for 5 mins followed by compound addition and measured upto 60 mins by LC-MS/MS analysis; format: ADME, Microsome
# Chain of Cereblon/Casein kinase I alpha (Homo sapiens) (P48729 2-337 limits assumed): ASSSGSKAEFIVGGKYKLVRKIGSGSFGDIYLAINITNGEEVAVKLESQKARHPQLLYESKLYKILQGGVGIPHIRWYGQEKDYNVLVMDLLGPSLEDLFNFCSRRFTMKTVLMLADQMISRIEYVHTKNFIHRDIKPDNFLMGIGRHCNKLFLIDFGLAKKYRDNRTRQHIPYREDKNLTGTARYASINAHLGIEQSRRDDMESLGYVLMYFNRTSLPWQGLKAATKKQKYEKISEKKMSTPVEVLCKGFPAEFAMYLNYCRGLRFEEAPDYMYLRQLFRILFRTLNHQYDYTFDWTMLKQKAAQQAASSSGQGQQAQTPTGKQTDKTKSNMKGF
# Chain of Cereblon/Casein kinase I alpha (Homo sapiens) (Q96SW2 whole entry partner): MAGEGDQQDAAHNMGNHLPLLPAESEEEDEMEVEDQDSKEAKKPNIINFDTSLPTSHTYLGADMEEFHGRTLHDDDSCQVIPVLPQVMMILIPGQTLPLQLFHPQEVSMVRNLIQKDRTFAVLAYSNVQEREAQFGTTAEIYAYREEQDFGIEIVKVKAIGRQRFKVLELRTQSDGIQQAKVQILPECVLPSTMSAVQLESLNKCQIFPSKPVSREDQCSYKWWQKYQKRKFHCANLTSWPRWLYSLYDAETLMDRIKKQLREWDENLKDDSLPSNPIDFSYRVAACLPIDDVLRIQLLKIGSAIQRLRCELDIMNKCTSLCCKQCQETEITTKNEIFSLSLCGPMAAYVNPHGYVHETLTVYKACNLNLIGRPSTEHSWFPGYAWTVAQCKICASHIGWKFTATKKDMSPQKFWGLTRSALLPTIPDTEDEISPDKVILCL
# Chain of Protein cereblon/Eukaryotic peptide chain release factor GTP-binding subunit ERF3A (Homo sapiens) (P15170 whole entry, looked up): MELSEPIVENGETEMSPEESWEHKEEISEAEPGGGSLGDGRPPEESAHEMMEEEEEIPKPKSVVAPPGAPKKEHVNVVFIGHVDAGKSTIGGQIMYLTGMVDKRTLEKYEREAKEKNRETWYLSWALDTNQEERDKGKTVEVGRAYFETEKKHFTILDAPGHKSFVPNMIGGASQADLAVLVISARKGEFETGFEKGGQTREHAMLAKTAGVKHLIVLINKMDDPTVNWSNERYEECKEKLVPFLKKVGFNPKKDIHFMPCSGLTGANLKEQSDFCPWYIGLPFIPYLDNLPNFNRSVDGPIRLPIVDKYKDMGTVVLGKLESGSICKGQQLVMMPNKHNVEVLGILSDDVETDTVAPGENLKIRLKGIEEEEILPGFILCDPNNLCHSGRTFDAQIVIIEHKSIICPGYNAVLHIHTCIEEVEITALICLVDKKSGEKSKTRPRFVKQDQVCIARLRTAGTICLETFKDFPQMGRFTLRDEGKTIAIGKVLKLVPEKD
# Chain of Protein cereblon/Eukaryotic peptide chain release factor GTP-binding subunit ERF3A (Homo sapiens) (Q96SW2 whole entry, looked up): as the sequence (Q96SW2 whole entry partner) above
# T2 sequence (Q96SW2 whole entry, looked up): as the sequence (Q96SW2 whole entry partner) above
# T2 sequence (Q9UKS7 whole entry, looked up): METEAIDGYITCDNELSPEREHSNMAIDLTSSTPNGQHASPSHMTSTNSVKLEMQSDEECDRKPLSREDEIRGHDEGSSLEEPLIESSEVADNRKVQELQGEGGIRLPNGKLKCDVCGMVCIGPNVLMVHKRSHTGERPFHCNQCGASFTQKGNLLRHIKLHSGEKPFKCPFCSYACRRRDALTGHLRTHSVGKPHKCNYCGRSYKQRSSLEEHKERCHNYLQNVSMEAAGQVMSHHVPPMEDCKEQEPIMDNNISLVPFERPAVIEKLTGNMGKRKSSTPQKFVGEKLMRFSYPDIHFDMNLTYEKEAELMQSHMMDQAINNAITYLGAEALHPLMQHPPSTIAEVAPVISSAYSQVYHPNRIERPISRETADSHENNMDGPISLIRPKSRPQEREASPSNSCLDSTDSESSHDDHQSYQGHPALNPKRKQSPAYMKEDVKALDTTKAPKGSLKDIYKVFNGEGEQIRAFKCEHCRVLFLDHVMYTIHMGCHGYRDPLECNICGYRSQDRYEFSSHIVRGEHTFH
Activity [2] [%],Activity [3] [%],Activity [4] [%],Activity [5] [%],Ratio [6],Ratio [7],Compound,further results
13,2,62,80,–,–,O=C1CCC(N2Cc3cc(NC(=O)c4cc5ccccc5o4)ccc3C2=O)C(=O)N1 (configuration not stated),solubility [1]: 25 mM
–,–,–,–,0.39,0.95,O=C1CCC(N2Cc3cc(NCc4ccc5c6c4CC=C4C=CC=C(C=C5)C46)ccc3C2=O)C(=O)N1 (configuration not stated),–
13,0,46,81,–,–,O=C1CCC(N2Cc3cc(NC(=O)C4=COc5ccccc5O4)ccc3C2=O)C(=O)N1 (configuration not stated),–
–,–,–,–,0.13,0.76,O=C1CCC(N2Cc3cc(NCc4cc5ccccc5o4)ccc3C2=O)C(=O)N1 (configuration not stated),–
9,5,36,38,–,–,O=C1CCC(N2Cc3cc(NC(=O)c4ccc5c(c4)OCCO5)ccc3C2=O)C(=O)N1 (configuration not stated),–
4,10,12,17,–,–,CC(=O)Nc1ccc2c(c1)CN(C1CCC(=O)NC1=O)C2=O (configuration not stated),–
–,–,–,–,–,–,O=C1CCC(N2Cc3cc(NCc4ccc5cc(F)ccc5c4)ccc3C2=O)C(=O)N1 (configuration not stated),Activity [8]: Active; Activity [9]: Active
12,5,47,49,–,–,O=C1CCC(N2Cc3cc(NC(=O)C4=Cc5cc(Br)cc(Br)c5OC4)ccc3C2=O)C(=O)N1 (configuration not stated),"solubility ([1]; DMSO, read-out: solubility): 50 mM"
–,–,–,–,0.08,0.19,O=C1CCC(N2Cc3cc(NCc4ccc5oc6ccccc6c5c4)ccc3C2=O)C(=O)N1 (configuration not stated),Activity [9]: Active
–,–,–,–,0.26,1.51,O=C1CCC(N2Cc3cc(NCCc4ccc5ccccc5c4)ccc3C2=O)C(=O)N1 (configuration not stated),Activity [8]: Active; Activity [9]: inactive
15,11,66,84,–,–,O=C1CCC(N2Cc3cc(NC(=O)C4=Cc5ccccc5OC4)ccc3C2=O)C(=O)N1 (configuration not stated),–
–,–,–,–,–,–,O=C1CCC(N2Cc3cc(NCc4ccc5ccncc5c4)ccc3C2=O)C(=O)N1 (configuration not stated),Activity [8]: Active
7,5,36,49,–,–,O=C1CCC(N2Cc3cc(NC(=O)c4ccc5c(c4)OCO5)ccc3C2=O)C(=O)N1 (configuration not stated),–
–,–,–,–,0.14,0.79,O=C1CCC(N2Cc3cc(NCc4cccc(Oc5ccccc5)c4)ccc3C2=O)C(=O)N1 (configuration not stated),–
–,–,–,–,0.59,1.04,O=C1CCC(N2Cc3cc(NCc4ccccc4)ccc3C2=O)C(=O)N1 (configuration not stated),–
–,–,64,62,–,–,COc1cnc2cc(C(=O)Nc3ccc4c(c3)CN(C3CCC(=O)NC3=O)C4=O)ccc2c1 (configuration not stated),microsomal CLint [10]: < 5.4 µL/min/mg; half-life [11]: > 4.25 h
–,–,–,–,0.64,0.43,COc1ccc2cc(CNc3ccc4c(c3)CN(C3CCC(=O)NC3=O)C4=O)ccc2c1 (configuration not stated),Activity [8]: Active; Activity [9]: Active
–,–,–,–,–,–,O=C1CCC(N2Cc3cc(NCc4cc5ccccc5cn4)ccc3C2=O)C(=O)N1 (configuration not stated),Activity [8]: Active
13,2,65,74,–,–,COc1cc(Br)cc2c1OCC(C(=O)Nc1ccc3c(c1)CN(C1CCC(=O)NC1=O)C3=O)=C2 (configuration not stated),"solubility ([1]; DMSO, read-out: solubility): 50 mM"
13,8,60,71,–,–,O=C(/C=C/c1ccccc1)Nc1ccc2c(c1)CN(C1CCC(=O)NC1=O)C2=O (configuration not stated),–
–,–,–,–,0.54,0.84,O=C1CCC(N2Cc3cc(NCc4ccc5cc(O)ccc5c4)ccc3C2=O)C(=O)N1 (configuration not stated),–
8,3,65,70,–,–,O=C1CCC(N2Cc3cc(NC(=O)C4=Cc5ccc(C(F)(F)F)cc5OC4)ccc3C2=O)C(=O)N1 (configuration not stated),"solubility ([1]; DMSO, read-out: solubility): 50 mM"
–,–,55,60,–,–,O=C1CCC(N2Cc3cc(NC(=O)c4ccc5cc(O)ccc5c4)ccc3C2=O)C(=O)N1 (configuration not stated),–
5,10,61,78,–,–,O=C1CCC(N2Cc3cc(NC(=O)c4ccc(Oc5ccccc5)cc4)ccc3C2=O)C(=O)N1 (configuration not stated),–
3,0,33,42,–,–,O=C1CCC(N2Cc3cc(NC(=O)c4ccc5ncsc5c4)ccc3C2=O)C(=O)N1 (configuration not stated),–
–,–,–,–,0.32,0.84,O=C1CCC(N2Cc3cc(NCc4cccc5c4oc4ccccc45)ccc3C2=O)C(=O)N1 (configuration not stated),Activity [8]: Active; Activity [9]: Active
16,9,66,75,–,–,COc1ccc2c(c1)C=C(C(=O)Nc1ccc3c(c1)CN(C1CCC(=O)NC1=O)C3=O)CO2 (configuration not stated),"solubility ([1]; DMSO, read-out: solubility): 50 mM"

Activity [2] [%],Activity [3] [%],Activity [4] [%],Activity [5] [%],Ratio [6],Ratio [7],Compound,further results
4,9,60,57,–,–,COc1ccc2c(c1)OCC(C(=O)Nc1ccc3c(c1)CN(C1CCC(=O)NC1=O)C3=O)=C2 (configuration not stated),"solubility ([1]; DMSO, read-out: solubility): 50 mM"
–,–,–,–,0.73,1.41,O=C1CCC(N2Cc3cc(NCc4ccc5cc(Br)ccc5c4)ccc3C2=O)C(=O)N1 (configuration not stated),–
–,–,–,–,–,–,COc1cc(CNc2ccc3c(c2)CN(C2CCC(=O)NC2=O)C3=O)cc2ccccc12 (configuration not stated),Activity [8]: Active; Activity [9]: inactive
16,1,51,74,–,–,O=C1CCC(N2Cc3cc(NC(=O)c4ccc5c(c4)CCCC5)ccc3C2=O)C(=O)N1 (configuration not stated),–
–,–,–,–,–,–,COc1cccc2ccc(CNc3ccc4c(c3)CN(C3CCC(=O)NC3=O)C4=O)cc12 (configuration not stated),Activity [8]: Active; Activity [9]: inactive
–,–,–,–,0.66,0.83,O=C1CCC(N2Cc3cc(NCc4cccc5ccccc45)ccc3C2=O)C(=O)N1 (configuration not stated),–
–,–,–,–,–,–,O=C1CCC(N2Cc3cc(NCc4cccc5cnccc45)ccc3C2=O)C(=O)N1 (configuration not stated),Activity [8]: Active
–,–,–,–,0.09,1.45,O=C1CCC(N2C(=O)c3ccc(NCc4ccc5ccccc5c4)cc3C2=O)C(=O)N1 (configuration not stated),Activity [8]: inactive; Activity [9]: Active
60,9,64,83,–,–,O=C1CCC(N2Cc3cc(NC(=O)c4cccc(C(=O)c5ccccc5)c4)ccc3C2=O)C(=O)N1 (configuration not stated),–
–,–,–,–,–,–,O=C1CCC(N2Cc3cc(NCc4ccc5ncccc5c4)ccc3C2=O)C(=O)N1 (configuration not stated),Activity [8]: Active
–,–,–,–,0.65,0.74,CN(C)c1ccc2cc(CNc3ccc4c(c3)CN(C3CCC(=O)NC3=O)C4=O)ccc2c1 (configuration not stated),Activity [8]: Active; Activity [9]: Active
97,25,64,93,–,–,O=C1CCC(N2Cc3cc(NC(=O)Cc4cccc5ccccc45)ccc3C2=O)C(=O)N1 (configuration not stated),–
–,–,–,–,–,–,O=C1CCC(N2Cc3cc(NCc4ccc5ccccc5n4)ccc3C2=O)C(=O)N1 (configuration not stated),Activity [8]: Active
–,–,72,88,–,–,COc1cc2ccc(C(=O)Nc3ccc4c(c3)CN(C3CCC(=O)NC3=O)C4=O)cc2cn1 (configuration not stated),–
–,–,–,–,0.24,0.94,O=C1CCC(N2Cc3cc(NCc4ccc5c(c4)oc4ccccc45)ccc3C2=O)C(=O)N1 (configuration not stated),Activity [8]: Active; Activity [9]: Active
11,6,66,85,–,–,O=C1CCC(N2Cc3cc(NC(=O)C4=Cc5ccc(OC(F)(F)F)cc5OC4)ccc3C2=O)C(=O)N1 (configuration not stated),"solubility ([1]; DMSO, read-out: solubility): 50 mM"
–,–,–,–,–,–,COc1cc2c(OC)cccc2cc1CNc1ccc2c(c1)CN(C1CCC(=O)NC1=O)C2=O (configuration not stated),Activity [9]: Active
–,–,–,–,0.15,0.36,O=C1CCC(N2Cc3cc(NCc4ccc5ccccc5c4)ccc3C2=O)C(=O)N1 (configuration not stated),Activity [9]: Active
–,–,–,–,–,–,COc1ccc2ccc(CNc3ccc4c(c3)CN(C3CCC(=O)NC3=O)C4=O)cc2c1 (configuration not stated),Activity [8]: Active; Activity [9]: inactive
9,14,64,73,–,–,Cc1ccc2c(c1)OCC(C(=O)Nc1ccc3c(c1)CN(C1CCC(=O)NC1=O)C3=O)=C2 (configuration not stated),"solubility ([1]; DMSO, read-out: solubility): 50 mM"
–,–,–,–,0.04,0.66,O=C1CCC(N2Cc3cc(NCc4cccc(OCc5ccccc5)c4)ccc3C2=O)C(=O)N1 (configuration not stated),–
6,2,50,81,–,–,O=C1CCC(N2Cc3cc(NC(=O)c4ccc5occc5c4)ccc3C2=O)C(=O)N1 (configuration not stated),–
–,–,–,–,0.48,0.65,COc1ccc(CNc2ccc3c(c2)CN(C2CCC(=O)NC2=O)C3=O)cc1 (configuration not stated),–
62,9,58,74,–,–,O=C1CCC(N2Cc3cc(NC(=O)c4cccc(Oc5ccccc5)c4)ccc3C2=O)C(=O)N1 (configuration not stated),–
39,24,59,75,–,–,COc1cccc2c1C=C(C(=O)Nc1ccc3c(c1)CN(C1CCC(=O)NC1=O)C3=O)CO2 (configuration not stated),"solubility ([1]; DMSO, read-out: solubility): 50 mM"
13,22,62,80,–,–,O=C1CCC(N2Cc3cc(NC(=O)C4=Cc5ccc(Br)cc5OC4)ccc3C2=O)C(=O)N1 (configuration not stated),"solubility ([1]; DMSO, read-out: solubility): 50 mM"
